Data from patent publication US7396682B2, “Method for cell adhesion and wound healing” (Regen Biotech, Inc., priority 2000, dated 2008).

Key:
[1] = tested on: HCE cells; test: Inhibition assay of HCE cell adhesion using matrix peptides and reagents; type: cell-based, human; settings: HCE cells preincubated 30 min with reagent
Description: In order to identify cell surface receptors involved in the cell adhesion activity of βig-h3 protein, an inhibition assay was performed using various reagents.
Initially, plastic culture dishes were coated with 10 μg/ml fibronectin, βigh3-WT or βigh3-ΔRGD. HCE cells were preincubated for 30 min in media containing 5 mM EDTA, 100 μg/ml βigh3-WT, 100 μg/ml βigh3-ΔRGD, 1 mM RGD, 1 mM RGE or 100 μg/ml fibronectin, or none of them, and then assayed for cell adhesion as in Example 1.

[2] = tested on: circular dermal whole layer wounds on the back of each rat; test: Wound healing with chitosan base composites on dermal whole layer wounds (7 mm) of rats; type: in vivo; settings: chitosan base with 500 μg/ml protein, Mean ± S.D
Description: Adult Spraque-Dawley lineage rats with a body weight of 250-300 gm were raised with standard feedstuff at a constant temperature and humidity.
In test group 2, four circular dermal whole layer wounds were made on the back of each rat and coated with chitosan bases combined with materials of interest:
2-A: wound coated with chitosan base only
2-B: wound coated with chitosan base in combination with 500 μg/ml of fibronectin
2-E: wound coated with chitosan base in combination with 500 μg/ml of βig-h3 D-IV 3X protein
2-F: wound coated with chitosan base in combination with 500 μg/ml of βig-h3 D-IV 4X protein
The composites based on chitosan were prepared as follows. 1 g of water soluble chitosan (poly(1-4) 2-amino-2-deoxy-β-D-glucan) with a molecular weight of 600,000 Da was dissolved in 100 ml of sterile distilled water and the resulting 1% solution was dispensed in aliquot of 2 ml to 12-well plate (Corning, USA), followed by the addition of 100 μg of gentamycin per well. Fibronectin, βigh3-D-IV 3X, and βigh3-D-IV 4X were individually added to a concentration of 500 μg/ml and frozen at −70° C., followed by freeze-drying in a freeze drier (Ilshin) for 12 hours to give disc-shaped composites.
The backs of etherized rats were shaved, followed by sterilizing the shaved region with betadin solution. Penetrating the whole dermal layers, four circular wounds with a diameter of 7 mm were formed on the back of each rat. The wounds were covered with composites used for test groups 2-A, 2-B, 2-E and 2-F, respectively, and then with Tegaderm® (3M) and lightly bandaged. The composites were changed with fresh ones every three days.
Wound healing effects were evaluated by determining appearances of the wounds as in Example 4-2.

[3] = tested on: dermal whole layer wounds on the backs of rats; test: Wound healing with ointment bases on dermal whole layer wounds (2 cm) of rats; type: in vivo, rat; set-up: key to Formation grade of collagenous fibers at wound: 0: negative; 1+: insignificant; 2+: scatteringly formed; 3+: very dense; key to Re-ephithelialization of Wound (grade): 0: zero was set for the formation of no epithelial layers; 1+ for initiation of epithelialization; 2+ for incomplete epithelial layer structure; 3+ for complete epithelial layer structure; settings: for wound area: ointment 100 μg/ml, 1 g per day, mean
Description: To compare wound healing activity between the recombinant βig-h3 protein His-β-b, which contains all of the four fas-1 domains, like native βig-h3 protein, and the recombinant βig-h3 protein βigh3-D-IV, which contains the 4th domain alone, ointment bases comprising the recombinant proteins were tested as follows.
Four dermal whole layer wounds, each 2 cm in diameter, were made on the backs of rats and divided into test groups 1-A, 1-B, 1-C and 1-D according to the ointment applied thereto.
1-A: coated at a dose of 1 gm per day with an ointment base combined with no materials.
1-B: coated at a dose of 1 gm per day with an ointment in which fibronectin was combined at a concentration of 100 μg/ml with a base.
1-C: coated at a dose of 1 g per day with an ointment in which Hisβ-b protein was combined at a concentration of 100 μg/ml with a base.
1-D: coated at a dose of 1 g per day with an ointment in which βigh3-D-IV protein was combined at a concentration of 100 μg/ml with a base.
The backs of etherized rats were shaved, followed by sterilizing the shaved region with betadin solution. In test group 1, the back of each rat was cut by use of a No. 15 surgical blade to form four circular wounds with a diameter of 2 cm penetrating the whole dermal layers. Ointments for test groups 1-A, 1-B, 1-C and 1-D were applied at an amount of about 1 g to the wounds which were then covered with a synthetic dressing (Tegaderm® 3M) and lightly bandaged. Application of ointments was performed once every day.
With a base of an aqueous material (SamA base), each of the ointments contained, per 1 g, spermaceti 38 mg, stearyl alcohol 116 mg, polyethylglycol 38 mg, conc. glycerin 192 mg, ethanol 23 mg, […], ethyl paraoxybenzoate 0.87 mg, butyl paraoxybenzoate 0.12 mg, and purified water.
First, morphologies of wounds were observed. The same scale was positioned near each wound and pictures were taken at the same distance from each wound. Pictures were scanned in a computer and used to measure areas of the wounds with the aid of NIH image analysis system (Bio-Optics). To take the pictures, the muscle was completely relaxed by etherizing the rats. Measurements were performed once every other day until the 22nd day. For comparing test groups, the measured values were analyzed according to ANOVA test and Scheffer's test.
Histological analysis was conducted under an optical microscope. Biopsies of wound sites were taken at days 3, 7, 10, 14 and 20, and fixed in 10% formalin and solidified with paraffin. 6 μm slices of the samples were dyed with hematoxylin-eosin (H&E) and Masson's trichrome before observation under a microscope. Wound healing effects according to time of each test material were evaluated through re-epithelialization and formation of collagenous fibers. In the case of re-epithelialization, epithelial formation was semi-quantified in such a way that zero was set for the formation of no epithelial layers, 1+ for initiation of epithelialization, 2+ for incomplete epithelial layer structure, and 3+ for complete epithelial layer structure. Regarding comparison among test groups and differences according to time within each group, measured values were statistically analyzed using ANOVA test and Scheffe's test. As for collagenous fiber formation, it was graded as 1+ for insignificant formation of collagenous fibers as observed with trichrome dye, 2+ for scatteringly spaced collagenous fibers, and 3+ for dense collagenous fibers.

[4] = tested on: K562 cells; test: K562 cell adhesion to coated proteins (hexosaminidase analysis); type: cell-based; settings: 1 hour
Description: For another control experiment, K562 cells, known to express α5, but not α3 integrin, were used. K562 cells were inoculated onto plates coated with βigh3-WT, fibronectin, laminin, or type I collagen and incubated for 1 hour, followed by the hexosaminidase analysis.

In the case of “Fibronectin: positive control; purified human plasma fibronectin in cell assays, purified from citrated rat plasma for wound tests”, the “inhibition of cell adhesion to fibronectin” value ([1]; dishes coated with 10 μg/ml fibronectin) is reported as “significantly inhibited”, the “inhibition of cell adhesion to βig-h3” value ([1]; dishes coated with 10 μg/ml βig-h3) is reported as “partially inhibited” and the Remaining wound area ([2]; Day 0) is reported as 49.2 ± 0.5 mm^2. For the same substance, the Remaining wound area ([2]; Day 3) was 24.1 ± 0.6^b mm^2, the Remaining wound area ([2]; Day 6) was 12.9 ± 0.6^b mm^2 and the Remaining wound area ([2]; Day 9) was 9.7 ± 0.8^b mm^2. For the same substance, the Remaining wound area ([2]; Day 12) was 3.2 ± 0.4^b mm^2, the Remaining wound area ([2]; Day 15) was 0.8 ± 0.2^b mm^2 and the wound area ([3]; Day 0) was 3.17. For the same substance, the wound area ([3]; Day 2) was 2.38 cm², the “Formation grade of collagenous fibers at wound” value (from here on “Formation grade”) ([3]; Day 3) was 1+ and the “Re-ephithelialization of Wound (grade)” value ([3]; Day 3) was 0. The wound area ([3]; Day 4) was 2.01, the wound area ([3]; Day 6) was 1.83 and the “Formation grade” value ([3]; Day 7) was 2+. The “Re-ephithelialization of Wound (grade)” value ([3]; Day 7) was 1+, the wound area ([3]; Day 8) was 1.39 cm² and the “Formation grade” value ([3]; Day 10) was 2+. The “Re-ephithelialization of Wound (grade)” value ([3]; Day 10) was 1+, the wound area ([3]; Day 10) was 1.26 cm² and the wound area ([3]; Day 12) was 0.54. For the same substance, the “Formation grade” value ([3]; Day 14) was 3+, the “Re-ephithelialization of Wound (grade)” value ([3]; Day 14) was 2+ and the wound area ([3]; Day 14) was 0.39. For the same substance, the wound area ([3]; Day 16) was 0.25, the wound area ([3]; Day 18) was 0.16 and the “Formation grade” value ([3]; Day 20) was 3+. For the same substance, the “Re-ephithelialization of Wound (grade)” value ([3]; Day 20) was 3+, the wound area ([3]; Day 20) was 0.12 and the wound area ([3]; Day 22) was 0.06. For the same substance, the “reduction in wound area compared with ointment base alone” value ([3]; ointment application, p<0.05 versus group I-A) was “more quickly reduced”, the completion of re-epithelialization ([3]; optical microscope) was 20 days and the “adhesion of K562 cells to coated protein” value [4] was “adhered”.
